Source: patent publication US11878975B2, “Substituted indole compounds useful as TLR inhibitors” (BRISTOL-MYERS SQUIBB COMPANY, priority 2017, dated 2024)

How the values were obtained:
Format in all cases: cell-based
human TLR7 = biological target: T1, human TLR7 (Homo sapiens, UniProt Q9NYK1); experiment: TLR7 inhibition reporter assay (HEK-Blue cells, SEAP reporter, gardiquimod stimulation); details: HEK-Blue cells overexpressing human TLR7, SEAP reporter, gardiquimod 7.5 μM
T1 construct: host or cells: HEK-Blue cells
T1 sequence (Q9NYK1 27-1049): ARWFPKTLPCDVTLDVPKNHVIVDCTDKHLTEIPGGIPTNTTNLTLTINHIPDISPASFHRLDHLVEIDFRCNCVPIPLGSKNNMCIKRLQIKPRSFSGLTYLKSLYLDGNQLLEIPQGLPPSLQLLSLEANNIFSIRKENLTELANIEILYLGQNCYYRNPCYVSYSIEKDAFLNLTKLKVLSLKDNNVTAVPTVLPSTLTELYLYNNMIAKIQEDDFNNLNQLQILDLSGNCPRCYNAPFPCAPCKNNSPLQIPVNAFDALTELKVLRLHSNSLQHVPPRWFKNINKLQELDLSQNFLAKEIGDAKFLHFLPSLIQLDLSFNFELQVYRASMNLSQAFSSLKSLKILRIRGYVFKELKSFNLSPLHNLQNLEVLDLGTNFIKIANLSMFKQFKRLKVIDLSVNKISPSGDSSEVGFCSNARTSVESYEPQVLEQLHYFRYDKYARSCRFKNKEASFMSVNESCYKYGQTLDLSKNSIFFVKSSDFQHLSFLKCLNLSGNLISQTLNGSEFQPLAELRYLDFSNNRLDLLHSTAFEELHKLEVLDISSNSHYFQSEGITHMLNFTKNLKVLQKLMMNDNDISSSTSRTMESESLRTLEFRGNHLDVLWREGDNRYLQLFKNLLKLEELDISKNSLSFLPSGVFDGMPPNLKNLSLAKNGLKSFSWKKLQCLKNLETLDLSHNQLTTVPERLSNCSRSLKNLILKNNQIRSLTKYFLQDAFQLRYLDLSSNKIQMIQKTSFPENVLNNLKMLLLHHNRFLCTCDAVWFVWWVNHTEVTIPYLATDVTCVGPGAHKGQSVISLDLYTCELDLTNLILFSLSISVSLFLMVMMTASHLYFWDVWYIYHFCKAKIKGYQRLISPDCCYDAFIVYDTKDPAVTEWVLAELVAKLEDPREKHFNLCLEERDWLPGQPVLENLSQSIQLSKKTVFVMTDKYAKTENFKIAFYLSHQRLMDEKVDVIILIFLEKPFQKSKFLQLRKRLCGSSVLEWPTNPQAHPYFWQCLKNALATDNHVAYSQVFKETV
How it was run: (§1)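 Percent inhibition is derived from SEAP signal, scaled between agonist-plus-DMSO wells and wells given a known inhibitor. Test compounds (0.05 nM–50 μM) are pre-incubated 30 min at room temperature before agonist addition (TLR7: 7.5 μM gardiquimod; TLR8: 15.9 μM R848; TLR9: 5 nM ODN2006) and 22 h culture at 37 °C.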

human TLR8 = biological target: T2, human TLR8 (Homo sapiens, UniProt Q9NR97); experiment: TLR8 inhibition reporter assay (HEK-Blue cells, SEAP reporter, R848 stimulation); details: HEK-Blue cells overexpressing human TLR8, SEAP reporter, R848 15.9 μM
T2 construct: host or cells: HEK-Blue cells
T2 sequence (Q9NR97 27-1041): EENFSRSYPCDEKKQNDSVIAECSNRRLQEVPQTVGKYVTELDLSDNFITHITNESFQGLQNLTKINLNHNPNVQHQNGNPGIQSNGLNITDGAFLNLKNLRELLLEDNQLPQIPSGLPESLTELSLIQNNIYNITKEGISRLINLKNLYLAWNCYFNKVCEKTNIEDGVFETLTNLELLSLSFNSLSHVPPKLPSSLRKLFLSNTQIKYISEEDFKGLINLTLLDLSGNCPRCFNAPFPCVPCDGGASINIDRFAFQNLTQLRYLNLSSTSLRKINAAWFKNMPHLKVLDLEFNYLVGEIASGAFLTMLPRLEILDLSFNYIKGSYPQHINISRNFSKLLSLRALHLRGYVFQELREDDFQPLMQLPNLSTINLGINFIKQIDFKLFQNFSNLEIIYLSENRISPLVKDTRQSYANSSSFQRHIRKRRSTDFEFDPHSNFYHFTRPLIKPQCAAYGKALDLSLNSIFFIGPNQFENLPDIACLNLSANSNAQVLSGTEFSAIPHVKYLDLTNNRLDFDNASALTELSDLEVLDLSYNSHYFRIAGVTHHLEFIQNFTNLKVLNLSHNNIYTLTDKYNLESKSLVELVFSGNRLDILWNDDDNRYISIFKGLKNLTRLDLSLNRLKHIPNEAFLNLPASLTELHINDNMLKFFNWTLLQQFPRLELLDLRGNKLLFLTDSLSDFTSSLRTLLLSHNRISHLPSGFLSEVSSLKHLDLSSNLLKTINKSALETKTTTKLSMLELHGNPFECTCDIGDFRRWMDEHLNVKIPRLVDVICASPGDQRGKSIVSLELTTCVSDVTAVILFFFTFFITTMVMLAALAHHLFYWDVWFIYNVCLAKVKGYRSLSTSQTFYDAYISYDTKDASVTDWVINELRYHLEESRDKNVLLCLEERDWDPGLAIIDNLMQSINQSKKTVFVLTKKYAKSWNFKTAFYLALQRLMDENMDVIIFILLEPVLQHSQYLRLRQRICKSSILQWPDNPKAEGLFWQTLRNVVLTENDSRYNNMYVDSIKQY
How it was run: as §1

human TLR9 = biological target: T3, human TLR9 (Homo sapiens, UniProt Q9NR96); experiment: TLR9 inhibition reporter assay (HEK-Blue cells, SEAP reporter, ODN2006 stimulation); details: HEK-Blue cells overexpressing human TLR9, SEAP reporter, ODN2006 5 nM
T3 construct: host or cells: HEK-Blue cells
T3 sequence (Q9NR96 26-1032): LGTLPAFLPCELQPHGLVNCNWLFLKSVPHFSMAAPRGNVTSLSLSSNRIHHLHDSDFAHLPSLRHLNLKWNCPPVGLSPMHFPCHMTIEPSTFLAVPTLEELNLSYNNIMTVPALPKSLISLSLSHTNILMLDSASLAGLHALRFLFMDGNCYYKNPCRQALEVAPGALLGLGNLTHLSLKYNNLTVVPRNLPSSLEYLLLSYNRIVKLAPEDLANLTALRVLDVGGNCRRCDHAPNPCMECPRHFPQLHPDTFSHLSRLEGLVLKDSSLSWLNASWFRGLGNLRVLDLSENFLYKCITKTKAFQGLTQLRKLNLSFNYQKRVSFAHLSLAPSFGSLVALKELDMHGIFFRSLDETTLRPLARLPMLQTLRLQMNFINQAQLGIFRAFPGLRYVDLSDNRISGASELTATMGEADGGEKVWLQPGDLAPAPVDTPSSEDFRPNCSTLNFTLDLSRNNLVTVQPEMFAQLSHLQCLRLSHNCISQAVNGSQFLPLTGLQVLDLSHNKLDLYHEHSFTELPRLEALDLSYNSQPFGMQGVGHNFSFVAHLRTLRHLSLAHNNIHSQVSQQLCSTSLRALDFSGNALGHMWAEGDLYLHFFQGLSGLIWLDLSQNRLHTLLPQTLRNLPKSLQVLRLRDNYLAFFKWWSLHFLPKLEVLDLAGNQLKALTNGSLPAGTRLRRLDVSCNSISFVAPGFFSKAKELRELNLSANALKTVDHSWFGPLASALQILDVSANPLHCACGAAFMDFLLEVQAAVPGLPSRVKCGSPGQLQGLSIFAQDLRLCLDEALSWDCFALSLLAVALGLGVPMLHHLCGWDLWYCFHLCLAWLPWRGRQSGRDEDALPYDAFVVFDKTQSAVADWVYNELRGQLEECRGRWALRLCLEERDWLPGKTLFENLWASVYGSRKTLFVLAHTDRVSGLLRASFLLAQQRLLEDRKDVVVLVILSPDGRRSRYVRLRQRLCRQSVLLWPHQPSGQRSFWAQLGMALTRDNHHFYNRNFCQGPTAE
How it was run: as §1

| SMILES | IC50 (human TLR7) | IC50 (human TLR8) | IC50 (human TLR9) |
| --- | --- | --- | --- |
| Cc1c(-c2[nH]c3ccc(C4CC5CN(CC(=O)N(C)C)CC5C4)cc3c2C(C)C)cn2cnnc2c1C (stereo not drawn) [Example 520] | 29 nM | 66 nM | 17700 nM |
| Cc1c(-c2[nH]c3ccc(C4CC5CN(C(=O)CN(C)C)CC5C4)cc3c2C(C)C)cn2cnnc2c1C (stereo not drawn) [Example 521] | 4 nM | 37 nM | 7020 nM |
| Cc1c(-c2[nH]c3ccc(C4CC5CN(C6COC6)CC5C4)cc3c2C(C)C)cn2cnnc2c1C (stereo not drawn) [Example 522] | 9 nM | 85 nM | 12700 nM |
| Cc1c(-c2[nH]c3ccc(C4CCC(NC5COC5)CC4)cc3c2C(C)C)cn2cnnc2c1C (stereo not drawn) [Example 523] | 0.48 nM | 5.1 nM | 2720 nM |
| Cc1c(-c2[nH]c3ccc(C4CCC(NC5COC5)CC4)cc3c2C(C)C)cn2cnnc2c1C (stereo not drawn) [Example 524] | 12 nM | 21 nM | 11100 nM |
| CNC1CCC(c2ccc3[nH]c(-c4cn5cnnc5c(C)c4C)c(C(C)C)c3c2)CC1 (stereo not drawn) [Example 525] | 7 nM | 50 nM | 4410 nM |
| Cc1c(-c2[nH]c3ccc(C4CCC(N(C)C5COC5)CC4)cc3c2C(C)C)cn2cnnc2c1C (stereo not drawn) [Example 526] | 6 nM | 34 nM | 6970 nM |
| Cc1c(-c2[nH]c3ccc(C4CCC(N(C)C)CC4)cc3c2C(C)C)cn2cnnc2c1C (stereo not drawn) [Example 527] | 0.52 nM | 4.5 nM | 765 nM |
| Cc1c(-c2[nH]c3ccc(C4CCC(N(C)C5COC5)CC4)cc3c2C(C)C)cn2cnnc2c1C (stereo not drawn) [Example 528] | 2 nM | 16 nM | 5600 nM |
| Cc1c(-c2[nH]c3ccc(C4CCC(N(C)C)CC4)cc3c2C(C)C)cn2cnnc2c1C (stereo not drawn) [Example 529] | 12 nM | 39 nM | 9130 nM |
| CNC1CCC(c2ccc3[nH]c(-c4cn5cnnc5c(C)c4C)c(C(C)C)c3c2)CC1 (stereo not drawn) [Example 530] | 2 nM | 12 nM | 696 nM |
| Cc1c(-c2[nH]c3ccc(C4CNC4)cc3c2C(C)C)cn2cnnc2c1C [Example 531] | 57 nM | 137 nM | 10200 nM |
| Cc1c(-c2[nH]c3ccc(C4CN(CCS(C)(=O)=O)C4)cc3c2C(C)C)cn2cnnc2c1C [Example 532] | 13 nM | 20 nM | 16900 nM |
| Cc1c(-c2[nH]c3ccc(C4CN(C)C4)cc3c2C(C)C)cn2cnnc2c1C [Example 533] | 8 nM | 42 nM | 2180 nM |
| Cc1c(-c2[nH]c3ccc(C4CN(C(C)C)C4)cc3c2C(C)C)cn2cnnc2c1C [Example 534] | 9 nM | 28 nM | 7170 nM |
| Cc1c(-c2[nH]c3ccc(C4CN(CC5(C)COC5)C4)cc3c2C(C)C)cn2cnnc2c1C [Example 536] | 26 nM | 21 nM | 11000 nM |
| Cc1c(-c2[nH]c3ccc(C4CN(Cc5ncn(C)n5)C4)cc3c2C(C)C)cn2cnnc2c1C [Example 537] | 51 nM | 40 nM | 27800 nM |
| Cc1c(-c2[nH]c3ccc(C4CN(C5CCOC5)C4)cc3c2C(C)C)cn2cnnc2c1C (stereo not drawn) [Example 538] | 33 nM | 45 nM | 16500 nM |
| Cc1c(-c2[nH]c3ccc(C4CN(CC(=O)N(C)C)C4)cc3c2C(C)C)cn2cnnc2c1C [Example 539] | 64 nM | 132 nM | 1890 nM |
| Cc1c(-c2[nH]c3ccc(C4CN(C5COC5)C4)cc3c2C(C)C)cn2cnnc2c1C [Example 540] | 19 nM | 36 nM | 18600 nM |
| Cc1c(-c2[nH]c3ccc(C4CC(N)C4)cc3c2C(C)C)cn2ncnc2c1C (stereo not drawn) [Example 541] | 2 nM | 0.79 nM | 5740 nM |
| Cc1c(-c2[nH]c3ccc(C4CC(N)C4)cc3c2C(C)C)cn2ncnc2c1C (stereo not drawn) [Example 542] | 3 nM | 1.2 nM | 5100 nM |
| Cc1c(-c2[nH]c3ccc(C4CN(CCS(C)(=O)=O)C4)cc3c2C(C)C)cn2ncnc2c1C [Example 543] | 4 nM | 5.1 nM | 9490 nM |
| Cc1c(-c2[nH]c3ccc(C4CN(C5COC5)C4)cc3c2C(C)C)cn2ncnc2c1C [Example 544] | 5 nM | 12 nM | 21000 nM |
| Cc1c(-c2[nH]c3ccc(C4CNC4)cc3c2C(C)C)cn2ncnc2c1C [Example 545] | 2 nM | 3.8 nM | 2040 nM |
| CCCN1CC(c2ccc3[nH]c(-c4cn5cnnc5c(C)c4C)c(C(C)C)c3c2)C1 [Example 546] | 4 nM | 5.8 nM | 3870 nM |
| Cc1c(-c2[nH]c3ccc(C4CN(C)C4)cc3c2C(C)C)cn2ncnc2c1C [Example 547] | 0.37 nM | 0.67 nM | 4550 nM |
| Cc1c(-c2[nH]c3ccc(C4CN(CC(N)=O)C4)cc3c2C(C)C)cn2ncnc2c1C [Example 548] | 4 nM | 5.1 nM | 8050 nM |
